Experimental data reported in PubChem BioAssay (NCI).
Values joined by “and” are separate entries in the source; they are usually repeats but may differ in a detail not shown here. Equal entries are not always repeated.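 Where inhibition never reached the appropriate level, the endpoint shown equals the highest concentration tested. Otherwise, values were interpolated linearly from a five-concentration, 48-hour dose response in 96-well plates. Abbreviation: GI50, concentration required for 50% inhibition of growth. At the TGI there is no net growth.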

How the values were obtained:
Experiment in all cases: inhibition of tumour cell growth, NCI panel, 48 h
PC-3 prostate = test system: PC-3 prostate
DLD-1 colon = test system: DLD-1 colon
DMS 114 small cell lung = test system: DMS 114 small cell lung
DMS 273 small cell lung = test system: DMS 273 small cell lung
M19-MEL melanoma = test system: M19-MEL melanoma
RXF-631 renal = test system: RXF-631 renal
HOP-18 NSCLC = test system: HOP-18 NSCLC
XF 498 CNS = test system: XF 498 CNS
MDA-N = test system: MDA-N

| SMILES | GI50 (PC-3 prostate) | TGI (PC-3 prostate) [µM] | TGI (DLD-1 colon) [µM] | TGI (DMS 114 small cell lung) [µM] | TGI (DMS 273 small cell lung) [µM] | TGI (M19-MEL melanoma) [µM] | TGI (XF 498 CNS) [µM] | other results |
| --- | --- | --- | --- | --- | --- | --- | --- | --- |
| CC1=C2[C@@H](CC1)[C@]1(C)O[C@@](C(C)C)(C[C@H]1OC(=O)CO)[C@H]2OC(=O)C1CC1c1ccccc1 (some centres not stated) | 7360 nM | 21.6 |  |  |  |  |  |  |
| COc1cc(Nc2ncc(-c3ccccc3)o2)cc(OC)c1 | > 25000 nM | > 25 |  |  |  |  |  |  |
| Cc1csc2[n+]1-c1ccccc1N(C(=O)Nc1ccccc1)C(C)C2 (configuration not stated) | 59100 nM | > 100 |  |  |  |  |  |  |
| CCOC(=O)C(=O)CC1=Nc2ccccc2SC(c2cccc(C)c2)C1 (configuration not stated) |  |  | 34.1 | 35 | 37.9 | 40.9 |  | TGI (RXF-631 renal): 29.4 µM |
| COc1ccc2c(c1)nc(C(=O)c1ccco1)c(C(F)(F)F)[n+]2[O-] | 77400 nM | > 100 |  |  |  |  |  |  |
| COCc1c(-c2cc3cc(C)cc(OC)c3s2)c2c(N)ncnn2c1CN1CCNC(=O)C1 | 8540 nM | > 100 |  |  |  |  |  |  |
| CC1=C(/C=C/C(C)=C/C2CC(N(C)C)=CC(=O)O2)C(C)(C)CCC1 (configuration not stated) |  |  | 32.8 | 23.8 | 27.1 | 29.3 | 25.1 | TGI (HOP-18 NSCLC): 26.5 µM; TGI (RXF-631 renal): 27.8 µM |
| COc1ccc(C/C(=C(\C)c2ccc(OCCN3CCCC3)cc2)c2ccc(OCCN3CCCC3)cc2)cc1 | 1750 nM | 4.07 |  |  |  |  |  |  |
| CC(=O)[O-].Cn1ccnc1CNCc1nccn1C.[Cu+2].[O-][Cl+3]([O-])([O-])[O-] |  |  | > 100 | > 100 | > 100 |  |  | GI50 (DLD-1 colon): > 100 µM; GI50 (DMS 114 small cell lung): > 100 µM; GI50 (DMS 273 small cell lung): > 100 µM; GI50 (HOP-18 NSCLC): > 100 µM; TGI (HOP-18 NSCLC): > 100 µM |
| COc1ccc(Cc2coc3ccccc3c2=O)cc1OC |  | > 100 |  |  |  |  |  |  |
| Nc1ccc(C(=O)N/C(=C\c2cccc([N+](=O)[O-])c2)c2nc3[nH]c(=S)[nH]c(=O)c3[nH]2)cc1 |  | > 100 | > 100 | > 100 |  | > 100 | 34.3 | TGI (MDA-N): > 100 µM; TGI (RXF-631 renal): > 100 µM |
| COc1ccc2c(c1)[nH]c(=O)c1c3cccc(F)c3cn21 | 34.5 nM | > 31.9 |  |  |  |  |  |  |
| c1ccc(C2OC3(CCC[C@H]4C[C@H]43)O[C@H]2c2ccccc2)cc1 (some centres not stated) |  |  | > 100 | 74.9 | > 100 | 84.8 | 43.8 | TGI (RXF-631 renal): > 100 µM |
| Nc1ccc(C2=CC(c3ccc(Cl)cc3)N3C=CSC3=N2)cc1 (configuration not stated) | 8800 nM | > 100 |  |  |  |  |  |  |
| C[CH2][Ge]([CH2]C)([CH2]C)[O]C(=O)C(OC(C)=O)c1ccccc1 (configuration not stated) |  |  | > 100 | > 100 |  | > 100 | 31 | GI50 (DLD-1 colon): > 100 µM; GI50 (DMS 114 small cell lung): 42.1 µM; GI50 (HOP-18 NSCLC): > 100 µM; TGI (HOP-18 NSCLC): > 100 µM; GI50 (M19-MEL melanoma): > 100 µM; GI50 (RXF-631 renal): > 100 µM; TGI (RXF-631 renal): > 100 µM |
| CC1=C(SCCC(=O)OC(C[Se]C2=C(C)C(=O)c3ccccc3C2=O)C(=O)NCCCCCC(=O)OCc2ccccc2)C(=O)c2ccccc2C1=O (configuration not stated) | 2550 nM | 9.13 |  |  |  |  |  |  |

| SMILES | GI50 (PC-3 prostate) | TGI (PC-3 prostate) [µM] | TGI (DLD-1 colon) [µM] | TGI (DMS 114 small cell lung) [µM] | TGI (DMS 273 small cell lung) [µM] | TGI (M19-MEL melanoma) [µM] | TGI (XF 498 CNS) [µM] | other results |
| --- | --- | --- | --- | --- | --- | --- | --- | --- |
| CN(C)CCNC(=O)c1cccc2cc3c(Cl)cccc3nc12 |  |  | 4.46 | 3.69 | > 100 | 3.18 | 1.64 | TGI (HOP-18 NSCLC): > 27.6 µM; TGI (RXF-631 renal): > 100 µM |
| CC(=O)Nc1c(Nc2ccccc2)[nH]c(C)nc1=S |  |  | > 100 | > 100 | > 100 |  | > 100 |  |
| NCCCC[C@@H]1NC(=O)[C@H](CC(=O)O)NC(=O)CNC(=O)[C@H](CCCN=C(N)N)NC(=O)[C@@H](N)CSSC[C@@H](C(=O)O)NC(=O)[C@H](CC(=O)O)NC(=O)[C@@H]2CCCN2C(=O)CNC1=O | > 100000 nM | > 100 |  |  |  |  |  |  |
| CCOC(=O)Oc1cc2c(c(OC)c1OC)-c1ccc(OC)c(=O)cc1C(NC(C)=O)CC2 (configuration not stated) |  | > 100 |  | 0.0301 | > 100 | > 100 | > 100 | TGI (HOP-18 NSCLC): > 100 µM; TGI (MDA-N): < 0.0216 µM; TGI (RXF-631 renal): > 22.5 µM |
| O=C(O)[C@H](NS(=O)(=O)c1ccc(F)cc1)c1ccccc1 |  |  | > 100 | > 100 | > 100 | > 100 | > 100 | TGI (HOP-18 NSCLC): > 100 µM |
| Cc1ccc(S(=O)(=O)SC(C)(C)C)cc1 |  |  | 35.3 | 35.6 | 47.5 | > 100 | 32.1 | TGI (HOP-18 NSCLC): > 100 µM; TGI (RXF-631 renal): > 100 µM |
| CC(C)(C)c1ccc(Oc2ccc(N)cn2)cc1 | 8020 nM | > 100 |  |  |  |  |  |  |
| C=C/C=C/[C@@H](O)CC(=C)C[C@H]1OC2[C@H](C)[C@@H](OC(=O)C[C@H]3C[C@H](OC(C)=O)C[C@@]4(C[C@@](C)(O)C[C@H](CC(=C)[C@@H](C)[C@H](OC(C)=O)[C@H](C)C(=O)C[C@@H]5C[C@H](OC)CC6(C[C@@H](O)C[C@H](/C=C\CCC[C@H]7O[C@](O)(C=C[C@H]7C)[C@H]2O)O6)O5)O4)O3)[C@@H]1O | 2.5 nM | > 25 |  |  |  |  |  |  |
| CCN(CC)CCCNc1cc(OC)cc2nc3cc(Cl)ccc3nc12 | 1970 nM | 7.43 |  |  |  |  |  |  |
| COc1ccc2c3c([nH]c2c1[N+](=O)[O-])C(C)N(Cc1ccccc1)CC3 (configuration not stated) |  |  | > 100 | > 100 | 11.6 |  |  |  |
| CC1C(C)N(C(=O)CCl)c2ccccc2N1C(=O)CCl (configuration not stated) | 1190 nM | 2.85 |  |  |  |  |  |  |
| N#C/C(=C/c1ccc2c(c1)OCO2)C(=O)c1ccccc1 |  |  | > 100 |  |  | > 100 | > 100 | TGI (HOP-18 NSCLC): > 100 µM |
| O=S(=O)(NNc1ccccc1)c1ccccc1 |  | 22.9 |  |  |  |  |  | TGI (MDA-N): 25.3 µM |
| N/C(=N\N=C\c1ccc(C(F)(F)F)cc1)NO |  |  | > 100 | > 100 | 59.9 | > 100 | 51 |  |
| CNC(=O)c1cc(Oc2ccc(NC(=O)Nc3ccc(Cl)c(C(F)(F)F)c3)c(F)c2)ccn1 | 2820 nM and 2700 nM | > 64.6 |  |  |  |  |  |  |
| Cc1cccc(C)c1NC(=O)C1=NC(=S)NC(c2ccccc2)C1c1nc2ccccc2s1 (configuration not stated) |  |  | > 100 | > 100 | > 100 | > 100 | > 100 | TGI (HOP-18 NSCLC): > 100 µM |
